In ChEMBL document CHEMBL5678818, “Discovery of potent SOS1 inhibitors that block RAS activation via disruption of the RAS-SOS1 interaction” (Proc Natl Acad Sci U S A, 2019):

Columns and labels:
[1] = target: T1, Serine/threonine-protein kinase DCLK1 (Homo sapiens) (UniProt O15075); test: Inhibition of DCAMKL1 (unknown origin) assessed as residual activity at 1000 nM by KINOMEscan analysis relative to control
T1 sequence (whole entry): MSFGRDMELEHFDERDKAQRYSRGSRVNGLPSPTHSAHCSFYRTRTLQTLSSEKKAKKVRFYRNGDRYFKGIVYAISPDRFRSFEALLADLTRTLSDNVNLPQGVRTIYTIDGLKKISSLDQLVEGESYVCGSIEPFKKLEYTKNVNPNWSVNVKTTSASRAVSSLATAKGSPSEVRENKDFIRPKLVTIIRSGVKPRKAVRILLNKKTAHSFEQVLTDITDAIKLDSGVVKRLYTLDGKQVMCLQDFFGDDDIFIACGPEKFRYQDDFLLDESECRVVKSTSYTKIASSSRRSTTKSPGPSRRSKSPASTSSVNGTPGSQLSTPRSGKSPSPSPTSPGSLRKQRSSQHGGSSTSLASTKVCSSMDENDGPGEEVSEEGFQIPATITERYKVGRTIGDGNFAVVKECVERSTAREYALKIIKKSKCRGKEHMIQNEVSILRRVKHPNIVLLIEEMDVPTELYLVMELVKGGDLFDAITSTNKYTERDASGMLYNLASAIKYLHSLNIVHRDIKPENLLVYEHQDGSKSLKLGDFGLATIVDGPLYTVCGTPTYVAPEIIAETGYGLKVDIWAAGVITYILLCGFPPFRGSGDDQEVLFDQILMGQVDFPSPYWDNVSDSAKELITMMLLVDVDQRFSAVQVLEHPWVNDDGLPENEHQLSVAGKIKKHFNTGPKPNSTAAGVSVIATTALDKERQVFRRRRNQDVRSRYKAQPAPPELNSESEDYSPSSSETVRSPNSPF

[2] = target: T2, Phosphorylase b kinase gamma catalytic chain, liver/testis isoform (Homo sapiens) (UniProt P15735); test: Inhibition of PHKG2 (unknown origin) assessed as residual activity at 1000 nM by KINOMEscan analysis relative to control
T2 sequence (whole entry): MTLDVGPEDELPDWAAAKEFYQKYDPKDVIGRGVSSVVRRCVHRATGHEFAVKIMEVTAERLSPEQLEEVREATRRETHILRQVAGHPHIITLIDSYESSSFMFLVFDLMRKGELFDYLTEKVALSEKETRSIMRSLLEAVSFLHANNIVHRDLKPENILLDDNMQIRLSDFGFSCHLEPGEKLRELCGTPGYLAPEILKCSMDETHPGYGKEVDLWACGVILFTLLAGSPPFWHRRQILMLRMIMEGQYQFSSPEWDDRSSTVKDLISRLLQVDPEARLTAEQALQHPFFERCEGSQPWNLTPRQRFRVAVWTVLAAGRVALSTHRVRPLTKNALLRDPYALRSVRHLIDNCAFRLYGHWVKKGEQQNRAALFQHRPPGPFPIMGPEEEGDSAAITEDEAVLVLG

[3] = target: Mitogen-activated protein kinase kinase kinase 9 (Homo sapiens) (UniProt P80192); test: Inhibition of MLK1 (unknown origin) assessed as residual activity at 1000 nM by KINOMEscan analysis relative to control
Mitogen-activated protein kinase kinase kinase 9 (Homo sapiens), sequence (P80192 whole entry, looked up): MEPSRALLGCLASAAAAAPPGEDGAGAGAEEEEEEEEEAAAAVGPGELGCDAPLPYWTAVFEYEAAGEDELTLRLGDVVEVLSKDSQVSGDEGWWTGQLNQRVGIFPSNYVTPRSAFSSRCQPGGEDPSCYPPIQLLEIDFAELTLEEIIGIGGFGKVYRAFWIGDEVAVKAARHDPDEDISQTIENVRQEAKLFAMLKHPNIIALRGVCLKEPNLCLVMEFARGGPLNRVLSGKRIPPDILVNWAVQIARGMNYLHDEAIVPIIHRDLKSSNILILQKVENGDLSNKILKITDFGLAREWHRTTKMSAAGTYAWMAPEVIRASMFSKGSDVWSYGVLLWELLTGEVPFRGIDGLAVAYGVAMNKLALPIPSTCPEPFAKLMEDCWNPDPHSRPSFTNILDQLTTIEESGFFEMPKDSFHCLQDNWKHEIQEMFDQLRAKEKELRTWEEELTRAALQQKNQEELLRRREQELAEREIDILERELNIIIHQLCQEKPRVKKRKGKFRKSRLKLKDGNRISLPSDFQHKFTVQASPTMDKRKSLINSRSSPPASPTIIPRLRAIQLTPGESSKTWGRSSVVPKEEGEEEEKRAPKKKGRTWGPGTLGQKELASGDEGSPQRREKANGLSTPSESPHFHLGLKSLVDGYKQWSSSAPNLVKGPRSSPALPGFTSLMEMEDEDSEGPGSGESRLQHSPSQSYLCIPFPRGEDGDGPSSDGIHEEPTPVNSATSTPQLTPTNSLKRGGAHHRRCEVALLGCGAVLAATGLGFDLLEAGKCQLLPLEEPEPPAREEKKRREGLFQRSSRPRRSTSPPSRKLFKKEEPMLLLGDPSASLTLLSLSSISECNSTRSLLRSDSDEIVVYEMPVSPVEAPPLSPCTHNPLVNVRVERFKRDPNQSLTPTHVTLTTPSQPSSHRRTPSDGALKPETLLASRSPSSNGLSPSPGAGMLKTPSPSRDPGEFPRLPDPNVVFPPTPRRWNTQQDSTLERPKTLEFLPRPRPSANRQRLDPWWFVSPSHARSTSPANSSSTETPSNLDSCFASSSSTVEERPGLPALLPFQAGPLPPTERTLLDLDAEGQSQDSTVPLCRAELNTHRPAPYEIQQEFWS

[4] = target: T3, Serine/threonine-protein kinase LATS2 (Homo sapiens) (UniProt Q9NRM7); test: Inhibition of LATS2 (unknown origin) assessed as residual activity at 1000 nM by KINOMEscan analysis relative to control
T3 sequence (whole entry): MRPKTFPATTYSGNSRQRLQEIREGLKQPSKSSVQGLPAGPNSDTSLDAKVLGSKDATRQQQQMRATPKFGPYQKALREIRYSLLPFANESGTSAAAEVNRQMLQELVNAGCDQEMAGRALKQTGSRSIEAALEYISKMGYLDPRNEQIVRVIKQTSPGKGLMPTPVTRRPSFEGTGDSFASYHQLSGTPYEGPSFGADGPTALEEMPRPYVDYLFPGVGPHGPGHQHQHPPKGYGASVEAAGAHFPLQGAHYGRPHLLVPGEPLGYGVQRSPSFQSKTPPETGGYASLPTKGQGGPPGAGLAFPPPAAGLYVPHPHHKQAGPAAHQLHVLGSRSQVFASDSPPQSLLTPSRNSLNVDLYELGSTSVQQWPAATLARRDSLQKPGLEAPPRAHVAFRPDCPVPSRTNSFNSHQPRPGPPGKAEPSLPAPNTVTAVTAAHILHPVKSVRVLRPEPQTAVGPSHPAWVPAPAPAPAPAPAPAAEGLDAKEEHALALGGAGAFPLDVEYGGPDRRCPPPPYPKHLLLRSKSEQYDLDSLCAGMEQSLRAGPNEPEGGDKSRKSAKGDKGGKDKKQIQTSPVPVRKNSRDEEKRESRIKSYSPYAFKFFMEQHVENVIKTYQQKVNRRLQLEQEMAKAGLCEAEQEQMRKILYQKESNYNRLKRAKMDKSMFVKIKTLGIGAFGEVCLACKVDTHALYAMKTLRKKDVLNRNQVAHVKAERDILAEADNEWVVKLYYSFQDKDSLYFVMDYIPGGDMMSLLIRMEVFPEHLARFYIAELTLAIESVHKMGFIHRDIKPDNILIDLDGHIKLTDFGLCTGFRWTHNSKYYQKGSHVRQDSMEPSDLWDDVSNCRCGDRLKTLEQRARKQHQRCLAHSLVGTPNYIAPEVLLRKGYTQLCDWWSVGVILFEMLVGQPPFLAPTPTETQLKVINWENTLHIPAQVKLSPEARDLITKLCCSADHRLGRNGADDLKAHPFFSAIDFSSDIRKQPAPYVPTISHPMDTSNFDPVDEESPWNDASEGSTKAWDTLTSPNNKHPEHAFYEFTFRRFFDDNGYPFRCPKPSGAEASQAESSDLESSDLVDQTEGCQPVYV

[5] = tested on: ALK tyrosine kinase receptor (Homo sapiens), Q9UM73 [C1156Y]; test: Inhibition of ALK C1156Y mutant (unknown origin) assessed as residual activity at 1000 nM by KINOMEscan analysis relative to control
ALK tyrosine kinase receptor (Homo sapiens), Q9UM73 [C1156Y], sequence (Q9UM73 whole entry C1156Y, looked up): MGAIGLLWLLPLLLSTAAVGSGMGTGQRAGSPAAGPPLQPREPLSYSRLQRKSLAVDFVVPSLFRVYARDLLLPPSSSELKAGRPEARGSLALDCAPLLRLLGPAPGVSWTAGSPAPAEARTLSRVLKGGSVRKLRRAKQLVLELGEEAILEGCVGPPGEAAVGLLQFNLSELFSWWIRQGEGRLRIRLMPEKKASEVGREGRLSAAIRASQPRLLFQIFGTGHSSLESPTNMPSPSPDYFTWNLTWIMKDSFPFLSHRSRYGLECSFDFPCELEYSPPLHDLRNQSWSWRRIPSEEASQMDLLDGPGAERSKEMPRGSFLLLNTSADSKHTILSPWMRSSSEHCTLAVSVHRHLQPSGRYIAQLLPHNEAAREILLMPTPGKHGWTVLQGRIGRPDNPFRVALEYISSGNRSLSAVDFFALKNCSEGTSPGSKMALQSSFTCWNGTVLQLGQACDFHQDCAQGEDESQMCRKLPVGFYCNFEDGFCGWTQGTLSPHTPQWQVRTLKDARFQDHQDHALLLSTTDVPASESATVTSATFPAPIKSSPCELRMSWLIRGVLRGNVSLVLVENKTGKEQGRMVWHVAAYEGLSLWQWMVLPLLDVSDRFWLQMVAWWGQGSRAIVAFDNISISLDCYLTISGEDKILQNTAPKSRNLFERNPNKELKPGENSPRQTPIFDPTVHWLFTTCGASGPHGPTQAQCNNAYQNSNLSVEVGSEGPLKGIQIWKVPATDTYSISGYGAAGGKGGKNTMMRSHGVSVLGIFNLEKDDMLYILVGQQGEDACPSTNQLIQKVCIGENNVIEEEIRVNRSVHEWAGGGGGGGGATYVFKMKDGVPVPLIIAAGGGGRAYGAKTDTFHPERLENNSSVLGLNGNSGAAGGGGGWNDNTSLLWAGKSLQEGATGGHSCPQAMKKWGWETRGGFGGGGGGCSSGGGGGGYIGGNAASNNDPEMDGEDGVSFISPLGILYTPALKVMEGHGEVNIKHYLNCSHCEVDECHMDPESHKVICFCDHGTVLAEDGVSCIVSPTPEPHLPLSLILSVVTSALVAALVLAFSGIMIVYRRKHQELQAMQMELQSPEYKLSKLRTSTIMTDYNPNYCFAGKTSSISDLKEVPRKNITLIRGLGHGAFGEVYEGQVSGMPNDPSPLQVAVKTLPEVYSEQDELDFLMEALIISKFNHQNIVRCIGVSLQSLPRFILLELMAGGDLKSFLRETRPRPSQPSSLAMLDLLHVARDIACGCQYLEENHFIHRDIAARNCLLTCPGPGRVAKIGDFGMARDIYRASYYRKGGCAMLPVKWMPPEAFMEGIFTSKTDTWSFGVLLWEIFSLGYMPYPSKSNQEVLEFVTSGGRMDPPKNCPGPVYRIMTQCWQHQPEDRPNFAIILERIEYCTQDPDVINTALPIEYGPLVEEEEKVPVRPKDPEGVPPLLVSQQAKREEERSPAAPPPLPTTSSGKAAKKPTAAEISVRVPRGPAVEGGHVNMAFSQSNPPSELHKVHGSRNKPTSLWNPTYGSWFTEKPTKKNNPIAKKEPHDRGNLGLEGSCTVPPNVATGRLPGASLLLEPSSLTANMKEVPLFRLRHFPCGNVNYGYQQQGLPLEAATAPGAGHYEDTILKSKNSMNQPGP

[6] = target: Vascular endothelial growth factor receptor 1 (Homo sapiens) (UniProt P17948); test: Inhibition of FLT1 (unknown origin) assessed as residual activity at 1000 nM by KINOMEscan analysis relative to control
Vascular endothelial growth factor receptor 1 (Homo sapiens), sequence (P17948 whole entry): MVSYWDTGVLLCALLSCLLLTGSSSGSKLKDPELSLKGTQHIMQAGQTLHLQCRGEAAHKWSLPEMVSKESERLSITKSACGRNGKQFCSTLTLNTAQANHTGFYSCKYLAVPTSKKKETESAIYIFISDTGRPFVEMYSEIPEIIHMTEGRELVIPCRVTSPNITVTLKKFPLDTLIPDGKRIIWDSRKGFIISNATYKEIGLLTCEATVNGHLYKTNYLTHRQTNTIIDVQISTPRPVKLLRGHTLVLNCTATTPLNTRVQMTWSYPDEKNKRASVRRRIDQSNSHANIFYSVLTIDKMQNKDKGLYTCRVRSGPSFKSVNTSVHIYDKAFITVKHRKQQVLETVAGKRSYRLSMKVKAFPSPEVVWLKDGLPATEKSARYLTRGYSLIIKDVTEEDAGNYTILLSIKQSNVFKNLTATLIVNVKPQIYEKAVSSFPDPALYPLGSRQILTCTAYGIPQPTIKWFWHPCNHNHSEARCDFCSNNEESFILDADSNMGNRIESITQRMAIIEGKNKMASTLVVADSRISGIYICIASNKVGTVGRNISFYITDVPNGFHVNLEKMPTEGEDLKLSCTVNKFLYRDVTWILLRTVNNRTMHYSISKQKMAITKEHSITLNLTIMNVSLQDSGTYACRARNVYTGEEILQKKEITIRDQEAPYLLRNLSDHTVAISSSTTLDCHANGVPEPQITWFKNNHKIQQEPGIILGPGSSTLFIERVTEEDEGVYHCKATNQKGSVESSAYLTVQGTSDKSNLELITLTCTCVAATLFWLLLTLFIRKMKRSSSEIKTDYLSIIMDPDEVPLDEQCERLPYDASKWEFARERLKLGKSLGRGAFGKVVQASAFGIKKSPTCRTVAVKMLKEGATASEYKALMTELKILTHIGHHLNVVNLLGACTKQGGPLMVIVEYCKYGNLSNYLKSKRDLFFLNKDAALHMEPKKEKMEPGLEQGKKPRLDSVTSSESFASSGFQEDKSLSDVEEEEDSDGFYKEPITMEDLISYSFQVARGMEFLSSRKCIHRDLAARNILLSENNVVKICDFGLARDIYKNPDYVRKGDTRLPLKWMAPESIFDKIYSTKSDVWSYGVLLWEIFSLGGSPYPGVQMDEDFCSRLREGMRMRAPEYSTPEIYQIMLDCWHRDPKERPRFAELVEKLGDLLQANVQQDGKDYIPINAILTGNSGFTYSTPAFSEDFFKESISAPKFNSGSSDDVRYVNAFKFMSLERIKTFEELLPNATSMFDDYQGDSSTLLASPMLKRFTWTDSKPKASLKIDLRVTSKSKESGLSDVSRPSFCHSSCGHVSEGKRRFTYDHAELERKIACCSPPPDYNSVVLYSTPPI

`COc1cc2nc(C)nc(N[C@H](C)c3cccc(-c4cn[nH]c4)c3)c2cc1OC` showed an Activity [1] of 64%, an Activity [2] of 59% and an Activity [3] of 84%. For the same compound, the Activity [4] was 100%, the Activity [5] was 80% and the Activity [6] was 71%.
In the case of `COc1cc2ncnc(N[C@H](C)c3cccc4ccccc34)c2cc1OC`, the Activity [1] is reported as 76%, the Activity [2] is reported as 100% and the Activity [3] is reported as 100%. It also gave an Activity [4] of 89%, an Activity [5] of 86% and an Activity [6] of 96%.
